This passage reports IC50 and inhibition results from ChEMBL document CHEMBL1146017, “Dipeptide vinyl sultams: synthesis via the Wittig-Horner reaction and activity against papain, falcipain-2 and Plasmodium falciparum” (Bioorg Med Chem Lett, 2006).

The source made the active and inactive calls. The calls are words filed in the database; no cut-off is given here.

One test concerns the target T1, Falcipain 2 (Plasmodium falciparum, UniProt Q9N6S8).
T1 sequence (Q9N6S8 whole entry): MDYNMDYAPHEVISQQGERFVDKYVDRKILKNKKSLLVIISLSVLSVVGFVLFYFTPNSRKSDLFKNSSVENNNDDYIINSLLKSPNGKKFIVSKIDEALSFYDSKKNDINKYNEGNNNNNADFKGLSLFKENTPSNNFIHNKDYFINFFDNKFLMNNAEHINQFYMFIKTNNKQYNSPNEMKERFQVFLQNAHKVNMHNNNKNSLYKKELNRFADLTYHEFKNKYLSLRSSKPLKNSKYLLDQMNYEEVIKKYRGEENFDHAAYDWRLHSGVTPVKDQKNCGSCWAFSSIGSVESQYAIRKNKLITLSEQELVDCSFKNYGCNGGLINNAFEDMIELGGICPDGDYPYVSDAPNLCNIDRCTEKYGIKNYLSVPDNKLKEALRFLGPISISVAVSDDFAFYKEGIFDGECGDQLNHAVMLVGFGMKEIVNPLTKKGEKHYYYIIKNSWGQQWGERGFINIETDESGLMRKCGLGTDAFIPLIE
Put plainly: Inhibition of recombinant falcipain2.

The test system of another test is Plasmodium falciparum. The experiment in a line: Inhibition of Plasmodium falciparum W2. The class given is functional, organism-based.
Test [1] concerns the target T2, Papain (Carica papaya) (UniProt P00784).
T2 sequence (whole entry): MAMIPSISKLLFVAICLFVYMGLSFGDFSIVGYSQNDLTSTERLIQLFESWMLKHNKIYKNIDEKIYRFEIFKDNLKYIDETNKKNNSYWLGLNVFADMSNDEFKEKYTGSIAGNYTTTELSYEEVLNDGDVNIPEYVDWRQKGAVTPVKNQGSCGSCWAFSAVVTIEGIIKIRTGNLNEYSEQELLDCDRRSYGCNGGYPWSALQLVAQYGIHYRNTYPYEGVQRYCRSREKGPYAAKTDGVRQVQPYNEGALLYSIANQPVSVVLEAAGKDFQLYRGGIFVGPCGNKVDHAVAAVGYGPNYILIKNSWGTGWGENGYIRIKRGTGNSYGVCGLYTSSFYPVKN
Put plainly: Inhibition of papain upto 50 uM after 30 min.

Test [2] concerns the target T2, Papain (Carica papaya). Put plainly: Inhibition of papain at 50 uM.

`CC(C)C[C@H](NC(=O)N1CCOCC1)C(=O)N[C@H](/C=C1\CCN(Cc2ccccc2)S1(=O)=O)Cc1ccccc1`: the IC50 – broadly, the concentration that inhibits the measured activity by half – at Falcipain 2 was 48.4 µM; with Plasmodium falciparum, above 10 µM.
On to `CC(=O)N[C@@H](Cc1ccccc1)C(=O)N[C@H](/C=C1\CCCN(c2ccccc2)S1(=O)=O)Cc1ccccc1`, for which the inhibition entry on Papain (Carica papaya) [1] is “inactive”. The figures for the half-inhibitory concentration (IC50) at Falcipain 2 and with Plasmodium falciparum were 26.5 µM and above 10 µM, respectively.
In the case of `CC(C)(C)OC(=O)N[C@H](/C=C1\CCCN(Cc2ccccc2)S1(=O)=O)Cc1ccccc1`, the inhibition entry on Papain (Carica papaya) [2] is “inactive”.
Consider `CC(C)C[C@H](NC(=O)N1CCOCC1)C(=O)N[C@H](/C=C1\CCCN(c2ccccc2)S1(=O)=O)Cc1ccccc1`, for which the IC50 on Falcipain 2 was 31.4 µM; in the test with Plasmodium falciparum it was above 10 µM.
As to `CC(C)C[C@H](NC(=O)N1CCOCC1)C(=O)N[C@H](/C=C1\CCCN(Cc2ccccc2)S1(=O)=O)Cc1ccccc1`, the inhibition entry on Papain (Carica papaya) [2] was “inactive”. For the same compound, the half-inhibitory concentration (IC50) at Falcipain 2 worked out at 13.7 µM; in the test on Plasmodium falciparum it was 7.8 µM.
`CC(C)C[C@H](NC(=O)N1CCOCC1)C(=O)N[C@H](/C=C1/CCCN(Cc2ccccc2)S1(=O)=O)Cc1ccccc1`: the inhibition result at Papain (Carica papaya) [2] is “inactive”. Also, the IC50 on Falcipain 2 is 23.6 µM; in the test with Plasmodium falciparum, above 10 µM.
